From patent US20240215577A1, “FUNGICIDAL PYRIDONES” (FMC Corporation, priority 2021, published 2024)

Key:
Assay type in all cases: in vivo
Settings in all cases: 100 = 100% disease control, 0 = no control
Botrytis cinerea = assay: Test E: tomato Botrytis, preventive spray on tomato seedlings
Excerpt: (§1) General protocol for preparing test suspensions for Tests A-F: the test compounds were first dissolved in acetone in an amount equal to 3% of the final volume and then suspended at the desired concentration (in ppm) in acetone and purified water (50/50 mix by volume) containing 250 ppm of the surfactant PEG400 (polyhydric alcohol esters). The resulting test suspensions were then used in Tests A-F.
(§2) The test suspension was sprayed to the point of run-off on tomato seedlings. The following day the seedlings were inoculated with a spore suspension of Botrytis cinerea (the causal agent of tomato Botrytis) and incubated in a saturated atmosphere at 20° C. for 48 h, and then moved to a growth chamber at 24° C. for 3 days, after which time visual disease ratings were made.
(§3) A rating of 100 indicates 100% disease control and a rating of 0 indicates no disease control (relative to the controls). A dash (-) indicates the compound was not tested.

[1] = system: Blumeria graminis f. sp. tritici; assay: Test C: wheat powdery mildew, preventive spray on wheat seedlings
Excerpt: as §1
The test suspension was sprayed to the point of run-off on wheat seedlings. The following day the seedlings were inoculated with a spore dust of Blumeria graminis f. sp. tritici, (also known as Eysiphe graminis f. sp. tritici, the causal agent of wheat powdery mildew) and incubated in a growth chamber at 20° C. for 8 days, after which time visual disease ratings were made.
as §3

[2] = system: Puccinia recondita f. sp. tritici; assay: Test B: wheat leaf rust, preventive spray on wheat seedlings
Excerpt: as §1
(§4) The test solution was sprayed to the point of run-off on wheat seedlings. The following day the seedlings were inoculated with a spore suspension of Puccinia recondita f. sp. tritici (the causal agent of wheat leaf rust) and incubated in a saturated atmosphere at 20° C. for 24 h, and then moved to a growth chamber at 20° C. for 7 days, after which time visual disease ratings were made.
as §3

Alternaria solani = assay: Test F: tomato early blight, preventive spray on tomato seedlings
Excerpt: as §1
as §2, with “Alternaria solani” for “Botrytis cinerea”, “early blight)” for “Botrytis)”, “27°” for “20°”, “20°” for “24°”
as §3

Phakopsora pachyrhizi = assay: Test D: Asian soybean rust, preventive spray on soybean seedlings
Excerpt: as §1
as §4, with “soybean” for “wheat”, “Phakopsora pachyrhizi” for “Puccinia recondita f. sp. tritici”, “Asian soybean” for “wheat leaf”, “22°” for “20°”, “h” for “h,”, “8” for “7”
as §3

Zymoseptoria tritici = assay: Test A: wheat leaf blotch, preventive spray on wheat seedlings
Excerpt: as §1
The test solution was sprayed to the point of run-off on wheat seedlings. The following day the seedlings were inoculated with a spore suspension of Zymoseptoria tritici (the causal agent of wheat leaf blotch) and incubated in a saturated atmosphere at 24° C. for 48 h, and then moved to a growth chamber at 20° C. for 17 days, after which time disease ratings were made.
as §3

[3] = Botrytis cinerea, 50 ppm, read-out: Test E disease control rating
[4] = Blumeria graminis, 50 ppm, read-out: Test C disease control rating
[5] = Puccinia recondita, 50 ppm, read-out: Test B disease control rating
[6] = Alternaria solani, 50 ppm, read-out: Test F disease control rating
[7] = Phakopsora pachyrhizi, 216 h, 50 ppm, read-out: Test D disease control rating
[8] = Zymoseptoria tritici, 50 ppm, read-out: Test A disease control rating

SMILES | Test E disease control rating (Botrytis cinerea; 50 ppm) [%] | Test C disease control rating ([1]; 50 ppm) [%] | Test B disease control rating ([2]; 50 ppm) [%] | Test F disease control rating (Alternaria solani; 50 ppm) [%] | Test D disease control rating (Phakopsora pachyrhizi; 50 ppm) [%] | Test A disease control rating (Zymoseptoria tritici; 50 ppm) [%] | further results
Cn1cc(-c2cc(F)ccc2Cl)c(-c2ccc(F)cc2Cl)c(Cl)c1=O [Compound 1] | 98 | 0 | 100 | 46 | 0 | 100 | –
Cn1cc(-c2cc(F)ccc2Cl)c(-c2ccc(F)cc2Cl)c(I)c1=O [Compound 2] | 91 | 0 | 98 | 33 | 0 | 100 | –
COc1cc(OC)cc(-c2cn(C)c(=O)c(Cl)c2-c2ccc(F)cc2Cl)c1 [Compound 3, 3-chloro-4-(2-chloro-4-fluorophenyl)-5-(3,5-dimethoxyphenyl)-1-methyl-2(11)-pyridinone] | 100 | 0 | 100 | 100 | 65 | 99 | –
COc1cc(OC)c(Cl)c(-c2cn(C)c(=O)c(Cl)c2-c2ccc(F)cc2Cl)c1 [Compound 4, 3-chloro-5-(2-chloro-3,5-dimethoxyphenyl)-4-(2-chloro-4-fluorophenyl)-1-methyl-2(1H)-pyridinone] | – | – | – | – | – | – | pest or weed control at 50 ppm (Botrytis cinerea; [3]): 100%; pest or weed control at 50 ppm [1, 4]: 98%; pest or weed control at 50 ppm [2, 5]: 100%; pest or weed control at 50 ppm (Alternaria solani; [6]): 100%; pest or weed control at 50 ppm (Phakopsora pachyrhizi; [7]): 99%; pest or weed control at 50 ppm (Zymoseptoria tritici; [8]): 100%
COc1cc(-c2cn(C)c(=O)c(Cl)c2-c2ccc(F)cc2Cl)cc(OC)c1Cl [Compound 5, 3-chloro-5-(4-chloro-3,5-dimethoxyphenyl)-4-(2-chloro-4-fluorophenyl)-1-methyl-2(1H)-pyridinone] | – | – | – | – | – | – | pest or weed control at 250 ppm (Botrytis cinerea; Botrytis cinerea, 250 ppm, read-out: Test E disease control rating): 98%; pest or weed control at 250 ppm ([1]; Blumeria graminis, 250 ppm, read-out: Test C disease control rating): 0%; pest or weed control at 250 ppm ([2]; Puccinia recondita, 250 ppm, read-out: Test B disease control rating): 100%; pest or weed control at 250 ppm (Alternaria solani; Alternaria solani, 250 ppm, read-out: Test F disease control rating): 99%; pest or weed control at 250 ppm (Phakopsora pachyrhizi; Phakopsora pachyrhizi, 216 h, 250 ppm, read-out: Test D disease control rating): 78%; pest or weed control at 250 ppm (Zymoseptoria tritici; Zymoseptoria tritici, 250 ppm, read-out: Test A disease control rating): 100%
COc1cccc(-c2c(-c3ccc(F)cc3Cl)c(C#N)c(=O)n(C)c2C)c1 [Compound 6] | – | – | – | – | – | – | Test E disease control rating (Botrytis cinerea; 250 ppm): 0%; Test C disease control rating ([1]; 250 ppm): 89%; Test B disease control rating ([2]; 250 ppm): 0%; Test F disease control rating (Alternaria solani; 250 ppm): 0%; Test D disease control rating (Phakopsora pachyrhizi; 250 ppm): 0%; Test A disease control rating (Zymoseptoria tritici; 250 ppm): 0%
COc1cccc(-c2cn(C)c(=O)c(Cl)c2-c2ccc(F)cc2F)c1 [Compound 8] | – | – | – | – | – | – | Test E disease control rating (Botrytis cinerea; 250 ppm): 99%; Test C disease control rating ([1]; 250 ppm): 98%; Test B disease control rating ([2]; 250 ppm): 100%; Test F disease control rating (Alternaria solani; 250 ppm): 99%; Test D disease control rating (Phakopsora pachyrhizi; 250 ppm): 81%; Test A disease control rating (Zymoseptoria tritici; 250 ppm): 100%
CCCOc1ccc(Cl)c(-c2cn(C)c(=O)c(Cl)c2-c2ccc(F)cc2F)c1 [Compound 10] | 94 | 79 | 99 | 0 | 0 | 99 | –
Cn1cc(-c2ccccc2)c(-c2c(F)cccc2F)c(Cl)c1=O [Compound 11] | 97 | 0 | 80 | 94 | 0 | 99 | –
COc1cc(OC)cc(-c2cn(C)c(=O)c(C)c2-c2ccc(F)cc2Cl)c1 [Compound 12] | 92 | 40 | 99 | 99 | 83 | 100 | –
Cn1cc(-c2cc(F)ccc2Cl)c(-c2ccc(F)cc2Cl)c(C#N)c1=O [Compound 14] | 96 | 0 | 100 | 0 | 0 | 100 | –
Cn1cc(-c2ccccc2Cl)c(-c2ccc(F)cc2Cl)c(Cl)c1=O [Compound 15] | 88 | 69 | 100 | 0 | 0 | 100 | –
Cn1cc(-c2ccc(F)cc2Cl)c(-c2c(F)cccc2F)c(Cl)c1=O [Compound 16] | 96 | 0 | 97 | 31 | 68 | 100 | –
Cn1cc(-c2ccc(F)cc2)c(-c2c(F)cccc2F)c(Cl)c1=O [Compound 17] | 98 | 0 | 99 | 100 | 75 | 100 | –
Cc1c(-c2ccc(F)cc2Cl)c(-c2cc(F)ccc2Cl)cn(C)c1=O [Compound 18] | 98 | 94 | 100 | 99 | 96 | 100 | –
COc1cc(OC)cc(-c2cn(OC)c(=O)c(Cl)c2-c2ccc(F)cc2Cl)c1 [Compound 19, 3-chloro-4-(2-chloro-4-fluorophenyl)-5-(3,5-dimethoxyphenyl)-1-methoxy-2(1H)-pyridinone] | – | – | – | – | – | – | pest or weed control at 50 ppm (Botrytis cinerea; [3]): 98%; pest or weed control at 50 ppm [1, 4]: 0%; pest or weed control at 50 ppm [2, 5]: 99%; pest or weed control at 50 ppm (Alternaria solani; [6]): 0%; pest or weed control at 50 ppm (Phakopsora pachyrhizi; [7]): 11%; pest or weed control at 50 ppm (Zymoseptoria tritici; [8]): 58%
COc1cc(-c2cn(C)c(=O)c(Cl)c2-c2ccc(F)cc2F)ccc1Br [Compound 21] | 94 | 0 | 96 | 91 | 0 | 70 | –
COc1cc(OC)c(Cl)c(-c2cn(OC)c(=O)c(Cl)c2-c2ccc(F)cc2Cl)c1 [Compound 22, 3-chloro-4-(2-chloro-4-fluorophenyl)-5-(2-chloro-3,5-dimethoxyphenyl)-1-methoxy-2(1H)-pyridinone] | – | – | – | – | – | – | pest or weed control at 50 ppm (Botrytis cinerea; [3]): 98%; pest or weed control at 50 ppm [1, 4]: 76%; pest or weed control at 50 ppm [2, 5]: 100%; pest or weed control at 50 ppm (Alternaria solani; [6]): 99%; pest or weed control at 50 ppm (Phakopsora pachyrhizi; [7]): 97%; pest or weed control at 50 ppm (Zymoseptoria tritici; [8]): 99%
CCc1c(-c2ccc(F)cc2Cl)c(-c2cc(F)ccc2Cl)cn(C)c1=O [Compound 23] | 69 | 99 | 100 | 83 | 0 | 100 | –
COc1ccc(Cl)c(-c2cn(C)c(=O)c(Cl)c2-c2ccccc2Br)c1 [Compound 67] | 91 | 56 | – | 33 | 73 | 99 | –
